The values that follow come from US8637523B2, “Compounds for the reduction of beta-amyloid production” (Bristol-Myers Squibb Company, priority 2010, dated 2014).

Broadly, the IC50 is the midpoint of a concentration-inhibition curve.

In the first test the test system is Aβ42. As to the kind of experiment: Cellular assay for inhibition of Aβ1-42 production (H4 APP751 SWE clone 8.20). Format: cell-based. The conditions noted are these: 19 h, H4 APP751 SWE clone 8.20 cells, 19 h incubation; read-out: Activity Rating (Aβ42 cellular IC50), class symbol. Here is the method: Cellular Assays for Inhibition of Aβ1-40 and Aβ1-42 Production
H4 cells stably transfected with APP751 containing the Swedish mutation (H4 APP751 SWE clone 8.20, developed at BMS) were maintained in log phase through twice weekly passage at a 1:20 split. […] Following incubation for 19 h in 5% CO2 at 37° C., plates were briefly centrifuged (1000 rpm, 5 min). A 10 μl aliquot from each well was transferred to a second assay plate (Costar 3709) for Aβ40 measurements. Antibody cocktails were freshly prepared by dilution into 40 mM Tris-HCl (pH 7.4) with 0.2% BSA and added to assay plates. For Aβ42 measurements, antibodies specific for the Aβ42 neoepitope (565, developed at BMS; conjugated to the Wallac reagent (Perkin Elmer)) and the N-terminal sequence of Aβ peptide (26D6, developed at SIBIA; conjugated to APC (Perkin Elmer)) were mixed and 20 μl of the mixture was added to each well of the incubated cell plate yielding a final concentration of 0.8 ng/well 565 and 75 ng/well 26D6. For the Aβ40 measurements, antibodies specific for the Aβ40 neoepitope (TSD, developed at BMS; conjugated to the Wallac reagent (Perkin Elmer)) and 26D6 as described above were mixed and 20 μl of the mixture was added to the 10 μl aliquots which had been removed previously from the cell plate yielding a final concentration of 1.6 ng/well TSD and 17.5 ng/well 26D6. Assay plates containing antibodies were sealed with aluminum foil and incubated overnight at 4° C. Signal was determined using a Viewlux counter (Perkin Elmer) and IC50 values determined using curve fitting in CurveMaster (Excel Fit based).
In the case of `Clc1cn(-c2ccc3cc2OC/C=C/CCNc2nc(nc4c2CCC4c2ccccc2)N3)cn1` (centres unmarked) [Example 5B, (11E)-7-(4-chloro-1H-imidazol-1-yl)-19-phenyl-3,10,13,14,15,17,18,19-octahydro-2,16-(azeno)-8,4-(metheno)cyclopenta[j][1,7,9,13]oxatriazacyclooctadecine], the IC50 lay in the range of 10 to 100 nM.
Same read-out and setting: to `CC1C/C=C\COc2cc(ccc2-n2cnc(Cl)c2)Nc2nc(c3c(n2)C(c2ccccc2)CC3)N1` (centres unmarked) [Example 6B, (11Z)-7-(4-chloro-1H-imidazol-1-yl)-14-methyl-19-phenyl-3,10,13,14,15,17,18,19-octahydro-2,16-(azeno)-8,4-(metheno)cyclopenta[j][1,7,9,13]oxatriazacyclooctadecine] belongs 10 to 100 nM; to `CC1C/C=C/COc2cc(ccc2-n2cnc(Cl)c2)Nc2nc(c3c(n2)C(c2ccccc2)CC3)N1` (centres unmarked) [Example 7B, (11E)-7-(4-chloro-1H-imidazol-1-yl)-14-methyl-19-phenyl-3,10,13,14,15,17,18,19-octahydro-2,16-(azeno)-8,4-(metheno)cyclopenta[j][1,7,9,13]oxatriazacyclooctadecine], 100 to 1000 nM; to `Clc1cn(-c2ccc3cc2OCCOCCNc2nc(nc4c2CCC4c2ccccc2)N3)cn1` (centres unmarked) [Example 8A, 7-(4-chloro-1H-imidazol-1-yl)-19-phenyl-10,11,13,14,15,17,18,19-octahydro-16,2-(azeno)-8,4-(metheno)cyclopenta[i][1,4,7,11,13]dioxatriazacyclooctadecine], under 10 nM.
Still for that read-out and setting: for `Clc1cn(-c2ccc3cc2OCCCNc2nc(nc4c2CCC4c2ccccc2)N3)cn1` (centres unmarked) [Example 9A, 7-(4-chloro-1H-imidazol-1-yl)-17-phenyl-11,12,13,15,16,17-hexahydro-10H-14,2-(azeno)-8,4-(metheno)cyclopenta[g][1,5,9,11]oxatriazacyclohexadecine] the value was under 10 nM; for `CN1CCCOc2cc(ccc2-n2cnc(Cl)c2)Nc2nc3c(c1n2)CCC3c1ccccc1` (centres unmarked) [Example 10A, 7-(4-chloro-1H-imidazol-1-yl)-13-methyl-17-phenyl-11,12,13,15,16,17-hexahydro-10H-14,2-(azeno)-8,4-(metheno)cyclopenta[g][1,5,9,11]oxatriazacyclohexadecine], 10 to 100 nM; for `Clc1cn(-c2ccc3cc2OCCCCCNc2nc(nc4c2CCC4c2ccccc2)N3)cn1` (centres unmarked) [Example 11B, 7-(4-chloro-1H-imidazol-1-yl)-19-phenyl-3,10,11,12,13,14,15,17,18,19-decahydro-2,16-(azeno)-8,4-(metheno)cyclopenta[f][1,7,9,13]oxatriazacyclooctadecine], 10 to 100 nM.
For the molecule `Clc1cn(-c2ccc3cc2OCCCCNc2nc(nc4c2CCC4c2ccccc2)N3)cn1` (centres unmarked) [Example 12A, 7-(4-chloro-1H-imidazol-1-yl)-18-phenyl-10,11,12,13,14,16,17,18-octahydro-15,2-(azeno)-8,4-(metheno)cyclopenta[h][1,6,10,12]oxatriazacycloheptadecine], the IC50 was under 10 nM.
With `CN1CCCCOc2cc(ccc2-n2cnc(Cl)c2)Nc2nc3c(c1n2)CCC3c1ccccc1` (centres unmarked) [Example 13A, 7-(4-chloro-1H-imidazol-1-yl)-14-methyl-18-phenyl-10,11,12,13,14,16,17,18-octahydro-15,2-(azeno)-8,4-(metheno)cyclopenta[h][1,6,10,12]oxatriazacycloheptadecine], the IC50 was under 10 nM.

Still in this test, the particulars now being: 19 h, H4 APP751 SWE clone 8.20 cells, 19 h incubation; unit inferred; read-out: Activity Rating (Aβ42 cellular IC50), numeric value.
With `CC1C/C=C\COc2cc(ccc2-n2cnc(Cl)c2)Nc2nc(c3c(n2)C(c2ccccc2)CC3)N1` (centres unmarked) [Example 6A, (11Z)-7-(4-chloro-1H-imidazol-1-yl)-14-methyl-19-phenyl-3,10,13,14,15,17,18,19-octahydro-2,16-(azeno)-8,4-(metheno)cyclopenta[j][1,7,9,13]oxatriazacyclooctadecine], the IC50 was 3.6 nM.
Consider `CC1C/C=C/COc2cc(ccc2-n2cnc(Cl)c2)Nc2nc(c3c(n2)C(c2ccccc2)CC3)N1` (centres unmarked) [Example 7A, (11E)-7-(4-chloro-1H-imidazol-1-yl)-14-methyl-19-phenyl-3,10,13,14,15,17,18,19-octahydro-2,16-(azeno)-8,4-(metheno)cyclopenta[j][1,7,9,13]oxatriazacyclooctadecine], for which the IC50 was determined as 8.8 nM.
With `Clc1cn(-c2ccc3cc2OCCCNc2nc(nc4c2CCC4c2ccccc2)N3)cn1` (centres unmarked) [Example 9B, 7-(4-chloro-1H-imidazol-1-yl)-17-phenyl-11,12,13,15,16,17-hexahydro-10H-14,2-(azeno)-8,4-(metheno)cyclopenta[g][1,5,9,11]oxatriazacyclohexadecine], the IC50 amounted to 17 nM.
`Clc1cn(-c2ccc3cc2OCCCCCNc2nc(nc4c2CCC4c2ccccc2)N3)cn1` (centres unmarked) [Example 11A, 7-(4-chloro-1H-imidazol-1-yl)-19-phenyl-3,10,11,12,13,14,15,17,18,19-decahydro-2,16-(azeno)-8,4-(metheno)cyclopenta[f][1,7,9,13]oxatriazacyclooctadecine]: the IC50 was found to be 3.8 nM.
The same measure, in the same setting: for `CN1CCCCOc2cc(ccc2-n2cnc(Cl)c2)Nc2nc3c(c1n2)CCC3c1ccccc1` (centres unmarked) [Example 13B, 7-(4-chloro-1H-imidazol-1-yl)-14-methyl-18-phenyl-10,11,12,13,14,16,17,18-octahydro-15,2-(azeno)-8,4-(metheno)cyclopenta[h][1,6,10,12]oxatriazacycloheptadecine] the value was 26 nM.

Still in this test, the particulars now being: H4 APP751 SWE clone 8.20 cells, 19 h incubation; read-out: Activity Rating (Aβ42 cellular IC50), class symbol.
Regarding `N#Cc1ccc2cc1OCC(O)CCNc1nc(nc3c1CCC3c1ccc(F)cc1)N2` (single isomer, unassigned) [Example 73C, 7-cyano-18-(4-fluorophenyl)-10,11,12,13,14,16,17,18-octahydro-15,2-(azeno)-8,4-(metheno)cyclopenta[h][1,6,10,12]oxatriazacycloheptadecin-11(3H)-ol], the IC50 lay within 10 to 100 nM.
Same read-out and setting: to `CN1CC=CCOc2cc(ccc2-n2cnc(Cl)c2)Nc2nc3c(c1n2)CCC3c1ccccc1` (centres unmarked) [Example 3A, (11Z)-7-(4-chloro-1H-imidazol-1-yl)-14-methyl-18-phenyl-10,13,14,16,17,18-hexahydro-15,2-(azeno)-8,4-(metheno)cyclopenta[h][1,6,10,12]oxatriazacycloheptadecine] belongs under 10 nM.
On the same count and under the same terms, to `CN1CC=CCOc2cc(ccc2-n2cnc(Cl)c2)Nc2nc3c(c1n2)CCC3c1ccccc1` (centres unmarked) [Example 3B, (11Z)-7-(4-chloro-1H-imidazol-1-yl)-14-methyl-18-phenyl-10,13,14,16,17,18-hexahydro-15,2-(azeno)-8,4-(metheno)cyclopenta[h][1,6,10,12]oxatriazacycloheptadecine] belongs 10 to 100 nM; to `CN1CC=CCOc2cc(ccc2-n2cnc(Cl)c2)Nc2nc3c(c1n2)CCC3c1ccccc1` (centres unmarked) [Example 4A, (11E)-7-(4-chloro-1H-imidazol-1-yl)-14-methyl-18-phenyl-10,13,14,16,17,18-hexahydro-15,2-(azeno)-8,4-(metheno)cyclopenta[h][1,6,10,12]oxatriazacycloheptadecine], under 10 nM.
The same measure, in the same setting: for `CN1CC=CCOc2cc(ccc2-n2cnc(Cl)c2)Nc2nc3c(c1n2)CCC3c1ccccc1` (centres unmarked) [Example 4B, (11E)-7-(4-chloro-1H-imidazol-1-yl)-14-methyl-18-phenyl-10,13,14,16,17,18-hexahydro-15,2-(azeno)-8,4-(metheno)cyclopenta[h][1,6,10,12]oxatriazacycloheptadecine] the value was 10 to 100 nM; for `Clc1cn(-c2ccc3cc2OC/C=C/CCNc2nc(nc4c2CCC4c2ccccc2)N3)cn1` (centres unmarked) [Example 5A, (11E)-7-(4-chloro-1H-imidazol-1-yl)-19-phenyl-3,10,13,14,15,17,18,19-octahydro-2,16-(azeno)-8,4-(metheno)cyclopenta[j][1,7,9,13]oxatriazacyclooctadecine], under 10 nM; for `Clc1cn(-c2ccc3cc2OCCCCNc2nc(nc4c2CCC4c2ccccc2)N3)cn1` (centres unmarked) [Example 12B, 7-(4-chloro-1H-imidazol-1-yl)-18-phenyl-10,11,12,13,14,16,17,18-octahydro-15,2-(azeno)-8,4-(metheno)cyclopenta[h][1,6,10,12]oxatriazacycloheptadecine], 10 to 100 nM.
As for `Fc1ccc(C2CCc3c4nc(nc32)Nc2ccc(-n3cnc(Cl)c3)c(c2)OCC=CCN4)c(F)c1` (centres unmarked) [Example 14A, (11Z)-7-(4-chloro-1H-imidazol-1-yl)-18-(2,4-difluorophenyl)-10,13,14,16,17,18-hexahydro-15,2-(azeno)-8,4-(metheno)cyclopenta[h][1,6,10,12]oxatriazacycloheptadecine], the IC50 is under 10 nM.
`Fc1ccc(C2CCc3c4nc(nc32)Nc2ccc(-n3cnc(Cl)c3)c(c2)OCC=CCN4)c(F)c1` (centres unmarked) [Example 14B, (11Z)-7-(4-chloro-1H-imidazol-1-yl)-18-(2,4-difluorophenyl)-10,13,14,16,17,18-hexahydro-15,2-(azeno)-8,4-(metheno)cyclopenta[h][1,6,10,12]oxatriazacycloheptadecine]: the IC50 lay in the range of 10 to 100 nM.
